Series [1] deals with A549 cells. Nature of the series: Functional test of M4N@rABL (cell viability, trypan blue). The format is cell-based. Particulars: 100 μM M4N (20 μg/ml rABL), 24 hrs treatment then 48 hrs culture. The source says: After removing the medium, the cells were washed twice with PBS and cultured with serum-containing medium for 48 hrs. The cell viability was observed by a trypan blue staining.

The test system of series [2] is mice. Particulars: long-term feeding; cited from earlier work.

As for `COc1ccc(C[C@@H](C)[C@@H](C)Cc2ccc(OC)c(OC)c2)cc1OC` [M4N, tetra-O-methyl nordihydroguaiaretic acid], the cell viability in series [1] worked out at 40%. The “weight changes or mortality” value in series [2] is reported as “not found any obvious weight changes or mortality”.

What is called cell viability is a read-out of living cells in per cent, often relative to untreated cells.

Source of the values: patent US10792255B2, “Reconstituted apolipoprotein B lipoparticle, a preparation method and uses thereof” (National Chiao Tung University, priority 2013, dated 2020).
